Data from patent US9108944B2, “Androgen receptor modulators and uses thereof” (ARAGON PHARMACEUTICALS, INC., priority 2010, dated 2015).

Each compound was assayed against T1, AR-VP16 (Homo sapiens, UniProt P10275) (assay: AR-VP16 DNA Binding Assay, antagonist mode (HepG2 cells, 0.1 nM R1881)).
T1 sequence (P10275 560-920 limits assumed): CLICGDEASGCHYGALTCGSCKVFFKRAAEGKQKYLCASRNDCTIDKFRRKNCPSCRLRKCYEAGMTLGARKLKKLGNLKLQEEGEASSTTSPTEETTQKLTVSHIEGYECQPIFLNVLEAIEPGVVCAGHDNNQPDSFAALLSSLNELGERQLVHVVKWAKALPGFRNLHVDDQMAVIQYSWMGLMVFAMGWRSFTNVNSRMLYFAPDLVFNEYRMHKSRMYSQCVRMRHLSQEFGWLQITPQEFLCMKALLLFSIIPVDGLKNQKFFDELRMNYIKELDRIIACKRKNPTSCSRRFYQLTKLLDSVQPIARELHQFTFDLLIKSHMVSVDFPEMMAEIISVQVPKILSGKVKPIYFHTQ
Assay type: cell-based
Protocol: Cells were transiently transfected using Lipofectin (Life Technologies) according to the manufacturer's protocol. […] Transfected cells were incubated overnight then treated with ligand. […] For antagonist assays, the compounds were serially diluted and 50 μL of compound with RPMI supplemented with charcoal stripped serum plus methyltrienolone (R1881) were added to the cells. The final R1881 concentration used in the antagonist assays was 0.1 nM. Following 48 hour incubation the medium was removed and the cells were lysed in 40 μL of lysis buffer (25 mM Tris Phosphate, 2 mM CDTA, 10% Glycerol, 0.5% Triton X-100, 2 mM DTT).

Row | SMILES | IC50
1 | N#Cc1ncc(N2C(=O)C3(CCC3)N(c3ccc(C(=O)NCc4ccccc4Cl)c(F)c3)C2=S)cc1C(F)(F)F [Compound 287, N-(2-Chlorobenzyl)-4-(7-(6-cyano-5-(trifluoromethyl)pyridin-3-yl)-8-oxo-6-thioxo-5,7-diazaspiro[3.4]octan-5-yl)-2-fluorobenzamide] | < 1000 nM
2 | N#Cc1ccc(N2C(=S)N(c3cnc(C#N)c(C(F)(F)F)c3)C(=O)C23CCC3)c(F)c1 [Compound 70, 5-(5-(4-Cyano-2-fluorophenyl)-8-oxo-6-thioxo-5,7-diazaspiro[3.4]octan-7-yl)-3-(trifluoromethyl)picolinonitrile] | < 1000 nM
3 | Cc1cc(N2C(=O)C3(CCC3)N(c3ccc(C(=O)Nc4ncco4)c(F)c3)C2=S)cnc1C#N [Compound 300, 4-(7-(6-cyano-5-methylpyridin-3-yl)-8-oxo-6-thioxo-5,7-diazaspiro[3.4]octan-5-yl)-2-fluoro-N-(oxazol-2-yl)benzamide] | < 1000 nM
4 | N#Cc1ncc(N2C(=O)C3(CCC3)N(c3ccc(OCCCN4CCCC4)c(F)c3)C2=S)cc1C(F)(F)F [Compound 185, 5-(5-(3-Fluoro-4-(3-(pyrrolidin-1-yl)propoxy)phenyl)-8-oxo-6-thioxo-5,7-diazaspiro[3.4]octan-7-yl)-3-(trifluoromethyl)picolinonitrile] | < 1000 nM
5 | N#Cc1ncc(N2C(=O)C3(CCC3)N(c3ccc(OCCc4ccncc4)c(F)c3)C2=S)cc1C(F)(F)F [Compound 142, 5-(5-(3-Fluoro-4-(2-(pyridin-4-yl)ethoxy)phenyl)-8-oxo-6-thioxo-5,7-diazaspiro[3.4]octan-7-yl)-3-(trifluoromethyl)picolinonitrile] | < 1000 nM
6 | N#Cc1ccc(N2C(=O)C3(CCC3)N(c3ccc(O)c(F)c3)C2=S)c2cccnc12 [Compound 55, 5-(5-(3-Fluoro-4-hydroxyphenyl)-8-oxo-6-thioxo-5,7-diazaspiro[3.4]octan-7-yl)quinoline-8-carbonitrile] | < 1000 nM
7 | Cc1ccc(N2C(=S)N(c3cc(C#N)n(C)c3)C(=O)C23CCC3)cc1 [Compound 114, 1-Methyl-4-(8-oxo-6-thioxo-5-(p-tolyl)-5,7-diazaspiro[3.4]octan-7-yl)-1H-pyrrole-2-carbonitrile] | > 1000 nM
8 | Cc1cc(N2C(=O)C3(CCC3)N(c3ccc(C(=O)NC4CCOCC4)c(F)c3)C2=S)cnc1C#N [Compound 310, 4-(7-(6-Cyano-5-methylpyridin-3-yl)-8-oxo-6-thioxo-5,7-diazaspiro[3.4]octan-5-yl)-2-fluoro-N-(tetrahydro-2H-pyran-4-yl)benzamide] | > 1000 nM
9 | Cc1cc(N2C(=O)C3(CCC3)N(c3ccc(-c4cncnc4)cc3)C2=S)cnc1C#N [Compound 103, 3-Methyl-5-(8-oxo-5-(4-(pyrimidin-5-yl)phenyl)-6-thioxo-5,7-diazaspiro[3.4]octan-7-yl)picolinonitrile] | < 1000 nM
10 | CC(C)(C)OC(=O)N1CCN(c2ccc(N3C(=S)N(c4cnc(C#N)c(C(F)(F)F)c4)C(=O)C34CCC4)cc2)CC1 [Compound 119, tert-Butyl 4-(4-(7-(6-cyano-5-(trifluoromethyl)pyridin-3-yl)-8-oxo-6-thioxo-5,7-diazaspiro[3.4]octan-5-yl)phenyl)piperazine-1-carboxylate] | < 1000 nM
11 | Cc1ccc(N2C(=S)N(c3ccc(C#N)c4ccccc34)C(=O)C23CCC3)cc1 [Compound 94, 4-(8-Oxo-6-thioxo-5-(p-tolyl)-5,7-diazaspiro[3.4]octan-7-yl)-1-naphthonitrile] | < 1000 nM
12 | CN1CCN(C(=O)COc2ccc(N3C(=S)N(c4cnc(C#N)c(C(F)(F)F)c4)C(=O)C34CCC4)cc2F)CC1 [Compound 309, 5-(5-(3-Fluoro-4-(2-(4-methylpiperazin-1-yl)-2-oxoethoxy)phenyl)-8-oxo-6-thioxo-5,7-diazaspiro[3.4]octan-7-yl)-3-(trifluoromethyl)picolinonitrile] | < 1000 nM
13 | N#Cc1ncc(N2C(=O)C3(CCC3)N(c3cc(F)ccc3F)C2=S)cc1C(F)(F)F [Compound 74, 5-(5-(2,5-Difluorophenyl)-8-oxo-6-thioxo-5,7-diazaspiro[3.4]octan-7-yl)-3-(trifluoromethyl)picolinonitrile] | < 1000 nM
14 | Cc1ccc(N2C(=S)N(c3ccc(C#N)c4ncccc34)C(=O)C23CCC3)cc1 [Compound 36, 5-(8-Oxo-6-thioxo-5-(p-tolyl)-5,7-diazaspiro[3.4]octan-7-yl)quinoline-8-carbonitrile] | < 1000 nM
15 | N#Cc1ncc(N2C(=O)C3(CCC3)N(c3ccc(Oc4ccccn4)cc3)C2=S)cc1C(F)(F)F [Compound 41, 5-(8-Oxo-5-(4-(pyridin-2-yloxy)phenyl)-6-thioxo-5,7-diazaspiro[3.4]octan-7-yl)-3-(trifluoromethyl)picolinonitrile] | < 1000 nM
16 | N#Cc1ncc(N2C(=O)C3(CCC3)N(c3ccc(OCCc4cnccn4)c(F)c3)C2=S)cc1C(F)(F)F [Compound 176, 5-(5-(3-Fluoro-4-(2-(pyrazin-2-yl)ethoxy)phenyl)-8-oxo-6-thioxo-5,7-diazaspiro[3.4]octan-7-yl)-3-(trifluoromethyl)picolinonitrile] | < 1000 nM
17 | CNC(=O)c1ccc(N2C(=S)N(c3cnc(C#N)c4ccccc34)C(=O)C23CCC3)cc1F [Compound 66, 4-(7-(1-Cyanoisoquinolin-4-yl)-8-oxo-6-thioxo-5,7-diazaspiro[3.4]octan-5-yl)-2-fluoro-N-methylbenzamide] | < 1000 nM
18 | N#Cc1ncc(N2C(=O)C3(CCC3)N(c3ccc(OCc4ccncc4)c(F)c3)C2=S)cc1C(F)(F)F [Compound 156, 5-(5-(3-Fluoro-4-(pyridin-4-ylmethoxy)phenyl)-8-oxo-6-thioxo-5,7-diazaspiro[3.4]octan-7-yl)-3-(trifluoromethyl)picolinonitrile] | < 1000 nM
19 | N#Cc1ncc(N2C(=O)C3(CCC3)N(c3ccc(OCCCC(F)(F)C(F)(F)F)c(F)c3)C2=S)cc1C(F)(F)F [Compound 134, 5-(5-(3-Fluoro-4-((4,4,5,5,5-pentafluoropentyl)oxy)phenyl)-8-oxo-6-thioxo-5,7-diazaspiro[3.4]octan-7-yl)-3-(trifluoromethyl)picolinonitrile] | < 1000 nM
20 | N#Cc1ncc(N2C(=O)C3(CCC3)N(c3ccc4ccccc4c3)C2=S)cc1C(F)(F)F [Compound 9, 5-(5-(Naphthalen-2-yl)-8-oxo-6-thioxo-5,7-diazaspiro[3.4]octan-7-yl)-3-(trifluoromethyl)picolinonitrile] | < 1000 nM
21 | N#Cc1ncc(N2C(=O)C3(CCC3)N(c3ccc(OCCCc4cccnc4)c(F)c3)C2=S)cc1C(F)(F)F [Compound 145, 5-(5-(3-Fluoro-4-(3-(pyridin-3-yl)propoxy)phenyl)-8-oxo-6-thioxo-5,7-diazaspiro[3.4]octan-7-yl)-3-(trifluoromethyl)picolinonitrile] | < 1000 nM
22 | N#Cc1ncc(N2C(=O)C3(CCC3)N(c3ccc4ccncc4c3)C2=S)cc1C(F)(F)F [Compound 52, 5-(5-(Isoquinolin-7-yl)-8-oxo-6-thioxo-5,7-diazaspiro[3.4]octan-7-yl)-3-(trifluoromethyl)picolinonitrile] | < 1000 nM
23 | N#Cc1ncc(N2C(=O)C3(CCC3)N(c3ccc(OCCCOCc4ccccc4)c(F)c3)C2=S)cc1C(F)(F)F [Compound 135, 5-(5-(4-(3-(Benzyloxy)propoxy)-3-fluorophenyl)-8-oxo-6-thioxo-5,7-diazaspiro[3.4]octan-7-yl)-3-(trifluoromethyl)picolinonitrile] | < 1000 nM
24 | CCCNC(=O)c1ccc(N2C(=S)N(c3cnc(C#N)c(C(F)(F)F)c3)C(=O)C23CCC3)cc1F [Compound 278, 4-(7-(6-Cyano-5-(trifluoromethyl)pyridin-3-yl)-8-oxo-6-thioxo-5,7-diazaspiro[3.4]octan-5-yl)-2-fluoro-N-propylbenzamide] | < 1000 nM
25 | CNC(=O)c1ccc(N2C(=S)N(c3ccc(C#N)c4ncccc34)C(=O)C23CCC3)cc1F [Compound 37, 4-(7-(8-Cyanoquinolin-5-yl)-8-oxo-6-thioxo-5,7-diazaspiro[3.4]octan-5-yl)-2-fluoro-N-methylbenzamide] | < 1000 nM
26 | N#Cc1ncc(N2C(=O)C3(CCC3)N(c3ccc(Oc4ccncn4)cc3)C2=S)cc1C(F)(F)F [Compound 208, 5-(8-Oxo-5-(4-(pyrimidin-4-yloxy)phenyl)-6-thioxo-5,7-diazaspiro[3.4]octan-7-yl)-3-(trifluoromethyl)picolinonitrile] | < 1000 nM
27 | N#Cc1ncc(N2C(=O)C3(CCC3)N(C3CCCCC3)C2=S)cc1C(F)(F)F [Compound 53, 5-(5-Cyclohexyl-8-oxo-6-thioxo-5,7-diazaspiro[3.4]octan-7-yl)-3-(trifluoromethyl)picolinonitrile] | < 1000 nM
28 | CC(C)(C)NC(=O)c1ccc(N2C(=S)N(c3cnc(C#N)c(C(F)(F)F)c3)C(=O)C23CCC3)cc1F [Compound 286, N-(tert-Butyl)-4-(7-(6-cyano-5-(trifluoromethyl)pyridin-3-yl)-8-oxo-6-thioxo-5,7-diazaspiro[3.4]octan-5-yl)-2-fluorobenzamide] | < 1000 nM
29 | Cc1ccc(N2C(=S)N(c3ccc4nnc(C(F)(F)F)n4n3)C(=O)C23CCC3)cc1 [Compound 30, 6-Thioxo-5-(p-tolyl)-7-(3-(trifluoromethyl)-[1,2,4]triazolo[4,3-b]pyridazin-6-yl)-5,7-diazaspiro[3.4]octan-8-one] | < 1000 nM
